Experimental data reported in patent US10383335B2, “Bicyclic pyrazole pesticides” (FMC Corporation, priority 2015, dated 2019).
Like-named read-outs stand apart in the source and are kept apart here.

Columns and labels:
[1] = test system: green peach aphid (Myzus persicae (Sulzer)); experiment: Test A: control of green peach aphid on radish plant, spray, contact and/or systemic; type: in vivo; settings: 144 h, assessed after 6 days; for mortality at 250 ppm: sprayed at 250 ppm; for mortality at 50 ppm: sprayed at 50 ppm
Experimental: (§1) Test compounds were formulated using a solution containing 10% acetone, 90% water and 300 ppm X-77® Spreader Lo-Foam Formula non-ionic surfactant containing alkylarylpolyoxyethylene, free fatty acids, glycols and isopropanol (Loveland Industries, Inc. Greeley, Colo., USA). The formulated compounds were applied in 1 mL of liquid through a SUJ2 atomizer nozzle with ⅛ JJ custom body (Spraying Systems Co. Wheaton, Ill., USA) positioned 1.27 cm (0.5 inches) above the top of each test unit. Test compounds were sprayed at the rates indicated, and each test was replicated three times.
For evaluating control of green peach aphid (Myzus persicae (Sulzer)) through contact and/or systemic means, the test unit consisted of a small open container with a 12-15-day-old radish plant inside. This was pre-infested by placing on a leaf of the test plant 30-40 aphids on a piece of leaf excised from a culture plant (cut-leaf method). The aphids moved onto the test plant as the leaf piece desiccated. After pre-infestation, the soil of the test unit was covered with a layer of sand.
Test compounds were formulated and sprayed at 250 and/or 50 ppm. After spraying of the formulated test compound, each test unit was allowed to dry for 1 hour and then a black, screened cap was placed on top. The test units were held for 6 days in a growth chamber at 19-21° C. and 50-70% relative humidity. Each test unit was then visually assessed for insect mortality.

[2] = test system: cotton melon aphid (Aphis gossypii (Glover)); experiment: Test B: control of cotton melon aphid on cotton plant, spray, contact and/or systemic; type: in vivo; settings: 144 h
Experimental: as §1
For evaluating control of cotton melon aphid (Aphis gossypii (Glover)) through contact and/or systemic means, the test unit consisted of a small open container with a 6-7-day-old cotton plant inside. This was pre-infested with 30-40 insects on a piece of leaf according to the cut-leaf method, and the soil of the test unit was covered with a layer of sand.
Test compounds were formulated and sprayed at 250 and/or 50 ppm. After spraying, the test units were maintained in a growth chamber for 6 days at 19° C. and 70% relative humidity. Each test unit was then visually assessed for insect mortality.

[3] = test system: Western Flower Thrips (Frankliniella occidentalis (Pergande)); experiment: Test C: control of Western Flower Thrips on Soleil bean plant, spray, contact and/or systemic; type: in vivo; settings: sprayed at 250 ppm, adult thrips, held 6 days
Experimental: as §1
For evaluating control of the Western Flower Thrips (Frankliniella occidentalis (Pergande)) through contact and/or systemic means, the test unit consisted of a small open container with a 5-7-day-old Soleil bean plant inside.
Test compounds were formulated and sprayed at 250 ppm. After spraying, the test units were allowed to dry for 1 hour, and then 22-27 adult thrips were added to each unit. A black, screened cap was placed on top, and the test units were held for 6 days at 25° C. and 45-55% relative humidity.

[4] = test system: sweetpotato whitefly (Bemisia tabaci (Gennadius)); experiment: Test D: control of sweetpotato whitefly on cotton plant, spray, contact and/or systemic; type: in vivo; settings: 312 h, sprayed at 250 ppm, cotton plant infested with eggs, assessed after 13 days
Experimental: as §1
For evaluating control of the sweetpotato whitefly (Bemisia tabaci (Gennadius)) through contact and/or systemic means, the test unit consisted of a small open container with a 12-14-day-old cotton plant inside. Prior to the spray application, both cotyledons were removed from the plant, leaving one true leaf for the assay. Adult whiteflies were allowed to lay eggs on the plant and then were removed from the test unit. Cotton plants infested with at least 15 eggs were submitted to the test for spraying.
Test compounds were formulated and sprayed at 250 and/or 50 ppm. After spraying, the test units were allowed to dry for 1 hour. […] Each test unit was then visually assessed for insect mortality.

[5] = sprayed at 250 ppm, cotton plant, assessed after 6 days, read-out: mortality

Compound | mortality at 250 ppm [1] [%] | mortality at 250 ppm [2, 5] [%] | control efficacy (30% or less plant damage and/or 100% mortality) [3] | also measured
c1ccc(N2CCc3nn(-c4cccnc4)cc3C2)nc1 [Compound 49] |  |  |  | melting point: 117 to 125.1 °C
O=C(CCSCC(F)(F)F)N1CCc2nn(-c3cccnc3)cc2C1 [Compound 22, 1-[2,4,6,7-tetrahydro-2-(3-pyridinyl)-5H-pyrazolo[4,3-c]pyridin-5-yl]-3-[(2,2,2-trifluoroethyl)thio]-1-propanone] | ≥ 80 | ≥ 80 | very good to excellent levels of control efficacy | 
c1cncc(-n2cc3c(n2)CCN(c2cnccn2)C3)c1 [Compound 48, 4,5,6,7-tetrahydro-2-(3-pyridinyl)-5-(2-pyrazinyl)-2H-pyrazolo[4,3-c]pyridine] |  | ≥ 80 |  | 
CCNC(=O)N1CCc2nn(-c3cccnc3)cc2C1 [Compound 31] |  |  |  | melting point: 151.1 to 170.5 °C
N#CCC(=O)N1CCc2nn(-c3cccnc3)cc2C1 [Compound 54, 2,4,6,7-tetrahydro-β-oxo-2-(3-pyridinyl)-5H-pyrazolo[4,3-c]pyridine-5-propanenitrile] | ≥ 80 | ≥ 80 |  | mortality at 250 ppm [4]: ≥ 50%
CN(C)C(=O)OCC(=O)N1CCc2nn(-c3cccnc3)cc2C1 [Compound 51, 2-oxo-2-[2,4,6,7-tetrahydro-2-(3-pyridinyl)-5H-pyrazolo[4,3-c]pyridin-5-yl]ethyl N,N-dimethylcarbamate] |  |  |  | mortality at 250 ppm [2]: ≥ 80%
COC(CN(C)C(=O)N1CCc2nn(-c3cccnc3)cc2C1)OC [Compound 14, 2,4,6,7-tetrahydro-N-methyl-2-(3-pyridinyl)-N-(2,2-dimethoxyethyl)-5H-pyrazolo[4,3-c]pyridine-5-carboxamide] | ≥ 80 |  |  | mortality at 50 ppm [1]: ≥ 80%
COC1CC(NC(=O)N2CCc3nn(-c4cccnc4)cc3C2)C1 (stereo not shown) [Compound 47, 2,4,6,7-tetrahydro-N-(3-methoxycyclobutyl)-2-(3-pyridinyl)-5H-pyrazolo[4,3-c]pyridine-5-carboxamide] |  | ≥ 80 |  | 
O=C(CC[S+]([O-])CC(F)(F)F)N1CCc2nn(-c3cccnc3)cc2C1 (stereo not shown) [Compound 23, 1-[2,4,6,7-tetrahydro-2-(3-pyridinyl)-5H-pyrazolo[4,3-c]pyridin-5-yl]-3-[(2,2,2-trifluoroethyl)sulfinyl]-1-propanone] | ≥ 80 | ≥ 80 | very good to excellent levels of control efficacy | 
CNC(=O)N1CCc2nn(-c3cccnc3)cc2C1 [Compound 29] |  |  |  | melting point: 212 to 224.2 °C
FC(F)(F)c1ccc(N2CCc3nn(-c4cccnc4)cc3C2)nc1 [Compound 19] |  |  | very good to excellent levels of control efficacy | 
O=C(NCC(F)(F)F)N1CCc2nn(-c3cccnc3)cc2C1 [Compound 28] |  |  |  | melting point: 118.3 to 155.3 °C
COC(=O)NNC(=O)N1CCc2nn(-c3cccnc3)cc2C1 [Compound 10, 2,4,6,7-tetrahydro-2-(3-pyridinyl)-5H-pyrazolo[4,3-c]pyridine-5-carboxylic acid, 2-(methoxycarbonyl)hydrazide] | ≥ 80 |  | very good to excellent levels of control efficacy | mortality at 50 ppm [1]: ≥ 80%
c1cncc(N2CCc3nn(-c4cccnc4)cc3C2)c1 [Compound 52] | ≥ 80 |  |  | mortality at 250 ppm [4]: ≥ 50%
2,4,6,7-tetrahydro-2-(3-pyridinyl)-N-(2,2,2-trifluoromethyl)-5H-pyrazolo[4,3-c]pyridine-5-carboxamide [Compound 15] |  |  | very good to excellent levels of control efficacy | 
FC(F)(F)c1cc(N2CCc3nn(-c4cccnc4)cc3C2)ccn1 [Compound 20, 4,5,6,7-tetrahydro-2-(3-pyridinyl)-5-[2-(trifluoromethyl)-4-pyridinyl]-2H-pyrazolo[4,3-c]pyridine] | ≥ 80 |  | very good to excellent levels of control efficacy | mortality at 50 ppm [1]: ≥ 80%
